Data taken from US20220184222A1, “BICYCLE TOXIN CONJUGATES AND USES THEREOF” (BicycleTx Limited, priority 2019, published 2022).
Starred links: 1 amine or outer side, 2 acyl side, 3 side chain; linkers in the order of their positions; H or OH if unused. Non-standard residues stand in square brackets, D forms with d. Residues, ends and D or L forms follow the SMILES beside them. *: point of attachment. Dolaproine = CO[C@@H]([C@@H]1CCCN1)[C@@H](C)C(=O)O; Dil = CC[C@H](C)[C@H](NC)[C@@H](CC(=O)O)OC; PABC = O=C(OCc1ccc(N[*:1])cc1)[*:2]; X1 = O=C(CCCC(=O)*)ON1C(=O)CCC1=O; X2 = C[C@@H](N*)[C@@H](O)c1ccccc1; Cit = NC(=O)NCCC[C@H](N)C(=O)O; NMeV = CN[C@H](C(=O)O)C(C)C

Key:
[1] = tested on: PC-3M-luc-C6 human prostate carcinoma; assay: Intracardially implanted PC-3M-Luc-C6 metastatic model, BLI and survival (Example 6); assay type: in vivo, Mouse; conditions: for Day 26 T/C: BLI total bone signal; for tumor growth delay: evaluation size 9.0E+07 p/s
Method: The purpose of this study was to evaluate the efficacy and overall impact of Bicycle toxin conjugate BT5528 against established intracardially implanted PC-3M-luc-C6 human prostate carcinoma in male nude mice, with treatment regimens starting at different disease stages (Day 14 and Day 21). Response was monitored using bioluminescence imaging (BLI) on Days 14, 21, 28, 35, and 42 coupled with traditional survival endpoints.
BT5528: • Formulation pH: 5.4 • High Dose Formulation: 0.15 mg/mL • Vehicle: 50 mM Acetate, 10% Sucrose • Storage: 4° C. • Dose volume: 0.01 mL/g
All procedures carried out in this experiment were conducted in compliance with the applicable laws, regulations and guidelines of the National Institutes of Health (NIH). • Species: Mouse • Strain: Envigo nude mice (Hsd:Athymic Nude-Foxn1^nu) • Age at implant: 5-6 weeks • Sex: male • Min weight (D14): 24.9 g • Mean weight (D14): 28.4 g (range of group means, 27.7-28.8 g)
Animals were anesthetized with an IP injection of a ketamine (100 mg/kg)/xylazine (6 mg/kg) cocktail. When the animals were non-responsive (determined by a toe pinch test), 100 μl of cell suspension (3.0 E+06 cells) were drawn into a 1 ml syringe and a 27×½″ gauge needle was then attached. A small air bubble is created in the plunger side of the syringe before injection. The needle was then inserted slowly through the center of the second intercostal space, approximately 3 mm to the left of the sternum and aimed centrally until a continuous pulsation of bright red oxygenated blood into the needle hub was observed. 100 μl of cell suspension was then slowly injected over 5 seconds. A fresh needle and syringe were used for each animal.
Animals were injected with firefly D-luciferin (150 mg/kg) by IP administration according to body weight (0.2 ml/20 g). The success of the intracardiac injections was verified by a one minute bioluminescence scan using large binning (high sensitivity) of the CCD chip immediately after the injection. Mice with signals from the entire body, from snout to base of the tail, were deemed to have been successfully injected, while mice with signals localized to the chest area only, or not fully extending into the snout, were triaged from the study immediately.
All mice were sorted into study groups based on body weight and BLI-derived estimation of tumor burden.
BLI was performed using an IVIS S5 Lumina system (PerkinElmer, Waltham, Mass.). Animals were imaged five at a time under 1-2% isoflurane gas anesthesia. Each mouse was injected IP with 150 mg/kg (15 mg/ml) D-luciferin and imaged in the prone then supine positions 10 minutes after the injection. Large binning of the CCD chip was used, and the exposure time was adjusted (10 seconds to 2 minutes) to obtain at least several hundred counts per image and to avoid saturation of the CCD chip. BLI images were collected on Days 0, 7, 14, 21, 28, 35, 42, 49, 56 and 63 post-implant.
Images were analyzed using Living Image 4.7.1 (PerkinElmer, MA) software. Each unique tissue signal was circled manually and labeled based on anatomical site as mandible or hind limb for both prone and supine images. For limbs, the signal was also designated as being from the right or left side of the mouse.
Signal flux (photons/sec) were calculated for each unique metastatic signal and exported for all ROIs to facilitate analyses between groups.
Study was terminated on Day 78. All BLI endpoint calculations were derived from total bone values. The BLI background signal for this study was measured at 1.20 E+05 p/s. An animal was credited with a partial regression if the BLI signal fell below half the staging BLI signal level. Similarly, a complete regression (CR) was credited if the BLI signal fell below the background level, and a tumor-free survivor was if the BLI signal was below background on last day of imaging (Day 63), with no evidence of disease at necropsy. […]

pHH3 = assay: In vivo PD in PC-3 CDX model: tumor pHH3 IHC, mitotic arrest (Example 4); design: species or system Mus Musculus; conditions: single dose
Method: The objective of the research is to evaluate the in vivo PK/PD of test agents in treatment of PC-3 CDX model in Balb/c nude mice.
Each mouse was inoculated subcutaneously at the right flank with PC-3 tumor cells (10×10^6) in 0.2 mL of PBS for tumor development. The animals were randomized and dosed when the average tumor volume reached approximately 440 mm^3 for the PK/PD study. The test article administration and time points in each group were shown in the experimental design table.
Mice were randomly grouped based on tumor volume and dosed as experimental design. Plasma, serum, muscle and tumors were collected at 1 h, 2 h, 8 h, 24 h, 48 h, 72 h and 96 h post dosing.
3 tumors of a mouse cohort were embed into 1 FFPE block.
• 5 μm FFPE tissue section loaded on Ventana XT; • Deparaffinization was selected; • EDTA based CC1 Standard heat antigen retravel was selected; • Option 1 (Protein blocker, Invitrogen Cat #1890588) was selected and incubate for 32 Min; • CC3 antibody (CST Cat #9661) 1:200 dilution was applied and incubated for 60 min at 37° C. • Apply One Drop of [OMap anti-Rb HRP] […]

[2] = 1.5 mg/kg IV Q7D × 4 starting Day 14
[3] = 1.5 mg/kg IV Q7D × 4 starting Day 21

For `CC[C@H](C)[C@@H]([C@@H](CC(=O)N1CCC[C@H]1[C@H](OC)[C@@H](C)C(=O)N[C@H](C)[C@@H](O)c1ccccc1)OC)N(C)C(=O)[C@@H](NC(=O)[C@H](C(C)C)N(C)C(=O)OCc1ccc(NC(=O)[C@H](CCCNC(N)=O)NC(=O)[C@@H](NC(=O)CCCC(=O)ON2C(=O)CCC2=O)C(C)C)cc1)C(C)C` [BT5528] (X1-V[Cit][PABC][NMeV]V[Dil][Dolaproine]-X2), the “incidence of partial regressions” value [1, 2] was 60%, the “increased lifespan (ILS)” value [1, 2] was 177.3% and the “Day 26 T/C” value [1, 2] was 1%. For the same molecule, the tumor growth delay [1, 2] was greater than 35.1 days, the “increased lifespan (ILS)” value [1, 3] was 145.5% and the “less incidence of partial regressions than with Day 14 start” value [1, 3] was 40%. For the same molecule, the “Day 26 T/C” value [1, 3] was 3.4%, the tumor growth delay [1, 3] was greater than 35.1 days and the “bone tumor cell burden and survival” value ([1]; 4 weekly treatment cycles) was “reduced the bone tumor cell burden significantly and extended the survival of the mice”. For the same molecule, the “mice at the end of the study (D78) without observable (macroscopic) disease” value ([1]; mouse, in vivo) was 1 mouse, the “mitotic arrest in tumor measurable by pHH3 IHC, time after dose” value (pHH3) was no more than 24 hours and the “mitotic arrest of tumor cells, time post-dose” value (pHH3) was 24 to 48 h.
